Results published in ChEMBL document CHEMBL3785088, “Synthesis, anti-inflammatory, analgesic and COX-1/2 inhibition activities of anilides based on 5,5-diphenylimidazolidine-2,4-dione scaffold: Molecular docking studies” (Eur J Med Chem, 2016).

Legend:
[1] = test system: Mus musculus; assay: Analgesic activity in ip dosed albino Swiss mouse assessed as reduction in licking and blowing response at 58 deg C measured after 60 mins by hot plate test; assay type: functional; details: 1 h
[2] = target: T1, Prostaglandin G/H synthase 1 (Ovis aries, UniProt P05979); assay: Inhibition of ovine COX1 preincubated for 5 mins followed by addition of arachidonic acid as substrate measured after 2 mins by enzyme immunoassay
T1 sequence (P05979 whole entry): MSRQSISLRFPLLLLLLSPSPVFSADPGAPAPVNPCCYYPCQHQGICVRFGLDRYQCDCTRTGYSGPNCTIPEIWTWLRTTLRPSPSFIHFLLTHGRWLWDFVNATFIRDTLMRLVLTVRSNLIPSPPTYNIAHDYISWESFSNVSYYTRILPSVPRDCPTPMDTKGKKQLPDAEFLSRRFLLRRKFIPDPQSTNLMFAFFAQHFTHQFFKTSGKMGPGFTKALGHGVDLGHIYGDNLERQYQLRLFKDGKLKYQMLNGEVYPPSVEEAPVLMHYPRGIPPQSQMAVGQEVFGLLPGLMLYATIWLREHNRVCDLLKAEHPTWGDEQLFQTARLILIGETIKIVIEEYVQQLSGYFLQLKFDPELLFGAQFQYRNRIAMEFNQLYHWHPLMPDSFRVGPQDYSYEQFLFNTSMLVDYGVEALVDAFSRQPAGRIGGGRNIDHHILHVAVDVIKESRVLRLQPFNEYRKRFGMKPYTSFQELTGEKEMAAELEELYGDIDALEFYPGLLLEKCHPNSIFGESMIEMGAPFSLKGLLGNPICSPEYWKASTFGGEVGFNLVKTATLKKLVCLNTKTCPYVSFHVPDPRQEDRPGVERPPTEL

[3] = test system: Rattus norvegicus; assay: Antiinflammatory activity in ip dosed Sprague-Dawley rat assessed as inhibition of carrageenan-induced foot paw edema measured 2 hrs post carrageenan challenge by plethysmometry; assay type: functional

SMILES | ED50 [1] [mg/kg] | IC50 [2] [µM] | ED50 [3] [mg/kg]
COc1cc(CNC(=O)CN2C(=O)NC(c3ccccc3)(c3ccccc3)C2=O)cc(OC)c1OC | 68.5 | > 100 | 90
O=C(CN1C(=O)NC(c2ccccc2)(c2ccccc2)C1=O)N/N=C/c1ccc(F)cc1 | – | – | > 200
NS(=O)(=O)c1ccc(NC(=O)CN2C(=O)NC(c3ccccc3)(c3ccccc3)C2=O)cc1 | 66.2 | > 100 | 97
COc1ccc(/C=N/N2C(=O)NC(c3ccccc3)(c3ccccc3)C2=O)cc1 | – | – | > 200
O=C(CN1C(=O)NC(c2ccccc2)(c2ccccc2)C1=O)Nc1ccc(F)cc1 | 119 | > 100 | 129
COc1ccc(C(=O)CN2C(=O)NC(c3ccccc3)(c3ccccc3)C2=O)cc1 | 184 | 70.5 | 155
O=C(CN1C(=O)NC(c2ccccc2)(c2ccccc2)C1=O)c1ccccc1 | – | – | > 200
COc1ccc(CNC(=O)CN2C(=O)NC(c3ccccc3)(c3ccccc3)C2=O)cc1 | 67.3 | > 100 | 109
COc1ccc(CNC(=O)CCN2C(=O)NC(c3ccccc3)(c3ccccc3)C2=O)cc1 | 122 | > 100 | 112
O=C(CN1C(=O)NC(c2ccccc2)(c2ccccc2)C1=O)c1ccc(F)cc1 | 142 | 70.5 | 156
COc1ccc(/C=N/NC(=O)CN2C(=O)NC(c3ccccc3)(c3ccccc3)C2=O)cc1 | – | – | > 200
O=C(CN1C(=O)NC(c2ccccc2)(c2ccccc2)C1=O)Nc1ccccc1 | – | – | > 200
O=C(CCN1C(=O)NC(c2ccccc2)(c2ccccc2)C1=O)NCc1ccccc1 | – | – | > 200
Cc1ccc(-c2cc(C(F)(F)F)nn2-c2ccc(S(N)(=O)=O)cc2)cc1 [CELECOXIB] | 74.1 | – | 86.4
NS(=O)(=O)c1ccc(CNC(=O)CN2C(=O)NC(c3ccccc3)(c3ccccc3)C2=O)cc1 | 54.6 | > 100 | 75
COc1ccc(NC(=O)CCN2C(=O)NC(c3ccccc3)(c3ccccc3)C2=O)cc1 | 71.1 | > 100 | 98
O=C(CN1C(=O)NC(c2ccccc2)(c2ccccc2)C1=O)NCc1ccc(F)cc1 | 90.9 | > 100 | 120
O=C(CCN1C(=O)NC(c2ccccc2)(c2ccccc2)C1=O)Nc1ccc(F)cc1 | 80.1 | > 100 | 123
NS(=O)(=O)c1ccc(NC(=O)CCN2C(=O)NC(c3ccccc3)(c3ccccc3)C2=O)cc1 | 40.3 | > 100 | 75
O=C(CN1C(=O)NC(c2ccccc2)(c2ccccc2)C1=O)NCc1ccccc1 | – | – | > 200
O=C(CCN1C(=O)NC(c2ccccc2)(c2ccccc2)C1=O)Nc1ccccc1 | – | – | > 200
O=C(CN1C(=O)NC(c2ccccc2)(c2ccccc2)C1=O)N/N=C/c1ccccc1 | – | – | > 200
O=C(CCN1C(=O)NC(c2ccccc2)(c2ccccc2)C1=O)NCc1ccc(F)cc1 | 75 | > 100 | 122
COc1ccc(NC(=O)CN2C(=O)NC(c3ccccc3)(c3ccccc3)C2=O)cc1 | 86 | > 100 | 120
